Measured values: ChEMBL document CHEMBL5260810, “Inhibition of bromodomain-containing protein 9 for the prevention of epigenetically-defined drug resistance” (Bioorg Med Chem Lett, 2017)
pIC50: −log10 of the molar value. The source made the active and inactive calls. The calls are words filed in the database; no cut-off is given here.

What was measured:
PANC-1 = assay: Antiproliferative activity against human PANC-1 cells assessed as reduction in colony formation up to 20 uM supplemented with fresh medium containing compound every 3 days for 9 days by MTT staining based clonogenic assay; assay type: functional, cell-based; details: time 9.0 day
PC-9 = assay: Antiproliferative activity against human PC-9 cells assessed as reduction in colony formation upto 20 uM supplemented with fresh medium containing compound every 3 days for 9 days by MTT staining based clonogenic assay; assay type: functional, cell-based; details: time 9.0 day
BT-474 = assay: Antiproliferative activity against human BT-474 cells assessed as reduction in colony formation up to 20 uM supplemented with fresh medium containing compound every 3 days for 9 days by MTT staining based clonogenic assay; assay type: functional, cell-based; details: time 9.0 day
GABA-B receptor = GABA-B receptor (Homo sapiens, UniProt O75899+Q9UBS5); assay: Inhibition of human GABA-B receptor at 10 uM relative to control; assay type: protein-complex assay
HCC1954 = assay: Antiproliferative activity against human HCC1954 cells assessed as reduction in colony formation upto 20 uM supplemented with fresh medium containing compound every 3 days for 9 days by MTT staining based clonogenic assay; assay type: functional, cell-based; details: time 9.0 day
HL-60 = assay: Cytotoxicity against human HL-60 cells measured after 8 days; assay type: functional, cell-based; details: HL-60, 192 h
[1] = biological target: T1, Bromodomain-containing protein 9 (Homo sapiens) (UniProt Q9H8M2); assay: Inhibition of BRD9 in human PC-9 cells assessed as reduction in ALDH1A1 gene expression at 5 uM preincubated with erlotinib for 8 days followed by compound addition and measured after 24 hrs by RNA sequencing analysis; assay type: cell-based
T1 sequence (whole entry): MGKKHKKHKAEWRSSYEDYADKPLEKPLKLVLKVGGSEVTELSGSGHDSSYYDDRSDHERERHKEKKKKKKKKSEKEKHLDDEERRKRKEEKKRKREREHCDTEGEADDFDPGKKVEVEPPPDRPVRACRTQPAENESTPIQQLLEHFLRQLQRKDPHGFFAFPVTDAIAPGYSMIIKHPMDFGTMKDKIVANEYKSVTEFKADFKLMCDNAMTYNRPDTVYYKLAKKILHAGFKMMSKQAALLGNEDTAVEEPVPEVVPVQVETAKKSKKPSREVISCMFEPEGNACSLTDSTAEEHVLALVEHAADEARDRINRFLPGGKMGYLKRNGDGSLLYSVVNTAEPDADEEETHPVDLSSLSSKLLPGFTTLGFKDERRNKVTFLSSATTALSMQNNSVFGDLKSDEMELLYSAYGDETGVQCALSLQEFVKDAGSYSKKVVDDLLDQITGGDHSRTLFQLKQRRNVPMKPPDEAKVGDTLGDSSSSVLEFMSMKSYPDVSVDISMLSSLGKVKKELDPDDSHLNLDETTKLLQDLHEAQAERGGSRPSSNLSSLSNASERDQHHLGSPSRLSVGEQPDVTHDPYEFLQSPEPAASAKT

[2] = biological target: T1, Bromodomain-containing protein 9 (Homo sapiens); assay: Inhibition of BRD9 in human PC-9 cells assessed as reduction in ALDH1A1 gene expression at 2 uM preincubated with erlotinib for 8 days followed by compound addition and measured after 24 hrs by RNA sequencing analysis; assay type: cell-based
NCI-H2170 = assay: Cytotoxicity against human NCI-H2170 cells measured after 3 days; assay type: functional, cell-based; details: NCI-H2170, 72 h
DOHH-2 = assay: Cytotoxicity against human DOHH-2 cells measured after 3 days; assay type: functional, cell-based; details: DOHH-2, 72 h
[3] = Cytotoxicity against human 537-mel cells after 8 days; assay type: functional, cell-based; details: 192 h
[4] = Cytotoxicity against human Hs 839.T cells measured after 3 days; assay type: functional, cell-based; details: 72 h
[5] = Cytotoxicity against human JHH-4 cells measured after 3 days; assay type: functional, cell-based; details: JHH-4, 72 h
[6] = Cytotoxicity against human MCAS cells measured after 3 days; assay type: functional, cell-based; details: 72 h
[7] = Cytotoxicity against human COLO-704 cells measured after 3 days; assay type: functional, cell-based; details: COLO 704, 72 h
NCI-H1944 = assay: Cytotoxicity against human NCI-H1944 cells measured after 3 days; assay type: functional, cell-based; details: NCI-H1944, 72 h
U-698-M = assay: Cytotoxicity against human U-698-M cells measured after 3 days; assay type: functional, cell-based; details: 72 h
[8] = Cytotoxicity against human HCC2450 cells measured after 3 days; assay type: functional, cell-based; details: HCC2450, 72 h
DOV13 = assay: Cytotoxicity against human DOV13 cells measured after 3 days; assay type: functional, cell-based; details: DOV13, 72 h
KU812 cell line = assay: Cytotoxicity against human KU812 cell line measured after 3 days; assay type: functional, cell-based; details: KU812, 72 h
MX1 = assay: Cytotoxicity against human MX1 cells measured after 3 days; assay type: functional, cell-based; details: MX1, 72 h
OPM-2 = assay: Cytotoxicity against human OPM-2 cells measured after 3 days; assay type: functional, cell-based; details: OPM-2, 72 h
[9] = Cytotoxicity against human EFM-192A cells measured after 8 days; assay type: functional, cell-based; details: 192 h
PC-3 = assay: Cytotoxicity against human PC-3 cells measured after 3 days; assay type: functional, cell-based; details: PC-3, 72 h
SNU-423 = assay: Cytotoxicity against human SNU-423 cells measured after 3 days; assay type: functional, cell-based; details: SNU-423, 72 h
[10] = Cytotoxicity against human NCE-G 59 cells measured after 3 days; assay type: functional, cell-based; details: NCE-G 59, 72 h
SU-DHL-6 = assay: Cytotoxicity against human SU-DHL-6 cells measured after 3 days; assay type: functional, cell-based; details: SU-DHL-6, 72 h
MDA-MB-453 = assay: Cytotoxicity against human MDA-MB-453 cells measured after 3 days; assay type: functional, cell-based; details: MDA-MB-453, 72 h
[11] = Cytotoxicity against human OVCAR433 cells measured after 3 days; assay type: functional, cell-based; details: OVCAR433, 72 h
[12] = Cytotoxicity against human MT-3 cells measured after 3 days; assay type: functional, cell-based; details: MT-3, 72 h
SKM-1 = assay: Cytotoxicity against human SKM-1 cells measured after 3 days; assay type: functional, cell-based; details: SKM-1, 72 h
EBC-1 = assay: Cytotoxicity against human EBC-1 cells after 8 days; assay type: functional, cell-based; details: EBC-1, 192 h
SUD4 = assay: Cytotoxicity against human SU-DHL-4 cells measured after 3 days; assay type: functional, cell-based; details: SU-DHL-4, 72 h
[13] = Cytotoxicity against human NCE-G 22 cells measured after 3 days; assay type: functional, cell-based; details: NCE-G 22, 72 h
[14] = Cytotoxicity against human HCC630 cells measured after 3 days; assay type: functional, cell-based; details: HCC630, 72 h
PA-1 = assay: Cytotoxicity against human PA-1 cells measured after 3 days; assay type: functional, cell-based; details: PA-1, 72 h
ACHN = assay: Cytotoxicity against human ACHN cells measured after 3 days; assay type: functional, cell-based; details: 72 h
[15] = Cytotoxicity against human NCE-G 112 cells measured after 3 days; assay type: functional, cell-based; details: NCE-G 112, 72 h
[16] = Cytotoxicity against human Hs 38.T cells measured after 3 days; assay type: functional, cell-based; details: 72 h
[17] = Cytotoxicity against human WSU-FSCCL cells measured after 3 days; assay type: functional, cell-based; details: 72 h
[18] = Cytotoxicity against human LS174T-HM7 cells measured after 3 days; assay type: functional, cell-based; details: LS174T-HM7, 72 h
[19] = Cytotoxicity against human OV56 cells measured after 3 days; assay type: functional, cell-based; details: OV56, 72 h
HEY = assay: Cytotoxicity against human HEY cells measured after 3 days; assay type: functional, cell-based; details: 72 h
[20] = Cytotoxicity against human NCI-H2073 cells measured after 8 days; assay type: functional, cell-based; details: NCI-H2073, 192 h
[21] = Cytotoxicity against human OVISE cells measured after 3 days; assay type: functional, cell-based; details: 72 h
[22] = Cytotoxicity against human KHM-1B cells measured after 3 days; assay type: functional, cell-based; details: 72 h

GABA-B receptor, sequence (Q9UBS5 whole entry): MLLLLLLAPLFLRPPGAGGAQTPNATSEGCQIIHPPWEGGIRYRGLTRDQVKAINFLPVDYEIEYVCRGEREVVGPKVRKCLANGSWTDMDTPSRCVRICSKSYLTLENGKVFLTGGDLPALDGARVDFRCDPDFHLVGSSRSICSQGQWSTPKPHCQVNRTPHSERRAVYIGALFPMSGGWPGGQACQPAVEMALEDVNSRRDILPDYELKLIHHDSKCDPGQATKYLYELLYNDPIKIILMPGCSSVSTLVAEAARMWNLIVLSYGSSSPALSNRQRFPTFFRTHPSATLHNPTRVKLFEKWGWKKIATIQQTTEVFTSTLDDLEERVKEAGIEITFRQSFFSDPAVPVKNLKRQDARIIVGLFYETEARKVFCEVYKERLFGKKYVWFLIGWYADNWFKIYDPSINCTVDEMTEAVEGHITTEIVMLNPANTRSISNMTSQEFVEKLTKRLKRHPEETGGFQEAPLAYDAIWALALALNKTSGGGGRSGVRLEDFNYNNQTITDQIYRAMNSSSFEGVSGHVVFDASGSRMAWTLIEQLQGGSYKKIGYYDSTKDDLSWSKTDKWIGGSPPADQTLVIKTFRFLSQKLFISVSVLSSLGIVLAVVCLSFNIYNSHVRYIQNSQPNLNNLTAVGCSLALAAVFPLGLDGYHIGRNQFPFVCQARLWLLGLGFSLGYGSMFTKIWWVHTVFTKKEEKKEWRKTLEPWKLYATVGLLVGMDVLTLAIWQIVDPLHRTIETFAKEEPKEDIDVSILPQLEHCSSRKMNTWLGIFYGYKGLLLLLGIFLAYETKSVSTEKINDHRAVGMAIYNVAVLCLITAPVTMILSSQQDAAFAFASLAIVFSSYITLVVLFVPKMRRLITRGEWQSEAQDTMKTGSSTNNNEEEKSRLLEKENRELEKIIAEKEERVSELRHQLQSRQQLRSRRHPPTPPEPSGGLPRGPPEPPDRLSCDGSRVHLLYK
GABA-B receptor, sequence (O75899 whole entry): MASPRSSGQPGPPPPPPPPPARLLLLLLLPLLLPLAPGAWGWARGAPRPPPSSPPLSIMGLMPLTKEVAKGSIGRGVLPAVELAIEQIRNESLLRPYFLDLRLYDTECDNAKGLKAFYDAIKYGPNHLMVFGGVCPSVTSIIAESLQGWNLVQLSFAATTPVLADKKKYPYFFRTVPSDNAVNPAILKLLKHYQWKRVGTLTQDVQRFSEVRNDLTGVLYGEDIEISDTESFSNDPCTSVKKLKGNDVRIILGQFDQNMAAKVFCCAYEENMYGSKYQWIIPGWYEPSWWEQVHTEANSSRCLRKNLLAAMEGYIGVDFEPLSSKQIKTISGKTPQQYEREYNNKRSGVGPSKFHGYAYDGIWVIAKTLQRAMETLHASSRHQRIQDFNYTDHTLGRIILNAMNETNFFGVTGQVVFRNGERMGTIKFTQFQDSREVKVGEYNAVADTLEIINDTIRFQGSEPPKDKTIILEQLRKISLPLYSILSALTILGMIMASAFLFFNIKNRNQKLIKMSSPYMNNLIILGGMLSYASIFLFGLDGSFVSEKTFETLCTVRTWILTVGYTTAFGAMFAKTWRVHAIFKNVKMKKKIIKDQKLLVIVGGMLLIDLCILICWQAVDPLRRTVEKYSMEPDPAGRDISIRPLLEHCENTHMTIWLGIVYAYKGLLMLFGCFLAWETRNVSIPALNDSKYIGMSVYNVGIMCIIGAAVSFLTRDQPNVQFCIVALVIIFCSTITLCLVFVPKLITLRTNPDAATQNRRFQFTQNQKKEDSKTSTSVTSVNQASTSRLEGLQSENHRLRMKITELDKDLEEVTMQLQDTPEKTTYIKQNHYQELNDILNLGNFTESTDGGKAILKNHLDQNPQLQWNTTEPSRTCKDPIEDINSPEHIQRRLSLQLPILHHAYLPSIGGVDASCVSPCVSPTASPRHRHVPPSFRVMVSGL

With `C/C=C/Cn1cc(-c2ccc(C(C)(C)O)cc2OC)c2cc[nH]c2c1=O` as the compound, how does the Activity (PANC-1) read?
Its Activity is “inactive”.

And the Activity (PC-9)?
Its Activity is “Active”.

What about the Activity (BT-474) of the same compound?
The Activity was “inactive”.

What about the pIC50 (GABA-B receptor) of the same compound?
Its pIC50 is 5.40.

What about the Activity (HCC1954) of the same compound?
Its Activity is “Active”.

What about the pIC50 (HL-60) of the same compound?
The pIC50 was 4.87.

What about the inhibition [1] of the same compound?
Its inhibition is “Active”.

Which inhibition [2] does the source give for `C/C=C/Cn1cc(-c2ccc(C(=O)N3CCOCC3)cc2)c2cc[nH]c2c1=O` here?
Its inhibition is “Active”.

With `C/C=C/Cn1cc(-c2cc(OC)c(C(=O)N3CCOCC3)cc2OC)c2cc(C)[nH]c2c1=O` as the compound, how does the pIC50 (NCI-H2170) read?
Its pIC50 is 5.30.

And the pIC50 (DOHH-2)?
Its pIC50 is 5.30.

And the pIC50 [3]?
The pIC50 was 5.70.

What about the pIC50 [4] of the same compound?
Its pIC50 is 5.30.

And the pIC50 [5]?
The pIC50 was 5.30.

What about the pIC50 [6] of the same compound?
Its pIC50 is 5.30.

What about the pIC50 [7] of the same compound?
Its pIC50 is 5.30.

What about the pIC50 (NCI-H1944) of the same compound?
Its pIC50 is 5.30.

What about the pIC50 (U-698-M) of the same compound?
The pIC50 was 5.30.

What about the pIC50 [8] of the same compound?
The pIC50 was 5.30.

And the pIC50 (DOV13)?
The pIC50 was 5.30.

What about the pIC50 (KU812 cell line) of the same compound?
The pIC50 was 5.30.

What about the pIC50 (MX1) of the same compound?
Its pIC50 is 5.30.

What about the pIC50 (OPM-2) of the same compound?
The pIC50 was 5.30.

And the pIC50 [9]?
The pIC50 was 5.70.

And the pIC50 (PC-3)?
The pIC50 was 5.30.

And the pIC50 (SNU-423)?
Its pIC50 is 5.30.

And the pIC50 [10]?
The pIC50 was 5.30.

What about the pIC50 (SU-DHL-6) of the same compound?
Its pIC50 is 5.30.

And the pIC50 (MDA-MB-453)?
The pIC50 was 5.30.

And the pIC50 [11]?
The pIC50 was 5.30.

And the pIC50 [12]?
Its pIC50 is 5.30.

What about the pIC50 (SKM-1) of the same compound?
Its pIC50 is 5.30.

What about the pIC50 (EBC-1) of the same compound?
The pIC50 was 5.70.

And the pIC50 (SUD4)?
The pIC50 was 5.30.

And the pIC50 [13]?
The pIC50 was 5.30.

What about the pIC50 [14] of the same compound?
The pIC50 was 5.30.

What about the pIC50 (PA-1) of the same compound?
The pIC50 was 5.30.

And the pIC50 (ACHN)?
The pIC50 was 5.30.

What about the pIC50 [15] of the same compound?
Its pIC50 is 5.30.

What about the pIC50 [16] of the same compound?
Its pIC50 is 5.30.

And the pIC50 [17]?
The pIC50 was 5.30.

And the pIC50 [18]?
The pIC50 was 5.30.

What about the pIC50 [19] of the same compound?
The pIC50 was 5.30.

And the pIC50 (HEY)?
The pIC50 was 5.30.

And the pIC50 [20]?
The pIC50 was 5.70.

What about the pIC50 [21] of the same compound?
Its pIC50 is 5.30.

What about the pIC50 [22] of the same compound?
Its pIC50 is 5.30.
